The source made the active and inactive calls. No cut-off for these calls is given here.
Tests used:
A549 [1] = assay: Antitumor activity against human A549 cells assessed as inhibition of cell viability incubated for 48 hrs in presence of ribociclib by MTT assay; format: functional, cell-based; details: A549, 48 h
NCI-H460 [2] = assay: Antitumor activity against human NCI-H460 cells xenografted in female BALB/c nude mouse assessed as tumor growth inhibition at 50 mg/kg, ip administered for 21 consecutive days in presence of ribociclib relative to control; format: functional; details: NCI-H460, 504 h, time 21 day, read-out: TGI
NCI-H460 [3] = assay: Induction of apoptosis in human NCI-H460 cells assessed as late apoptotic cells at 20 uM incubated for 48 hrs by Annexin V-PE/7-AAD staining based flow cytometric analysis (reference value: 3.76 %); format: functional
NCI-H460 [4] = assay: Induction of apoptosis in human NCI-H460 cells assessed as early apoptotic cells at 20 uM incubated for 48 hrs in presence of ribociclib by Annexin V-PE/7-AAD staining based flow cytometric analysis (reference value: 3.58 %); format: functional
NCI-H460 [5] = assay: Induction of autophagy in human NCI-H460 cells assessed as increase in autophagosomes at 20 uM incubated for 48 hrs by MDC staining and LC3B immunofluorescence analysis; format: functional, cell-based
NCI-H460 [6] = assay: Induction of cell cycle arrest in human NCI-H460 cells assessed as accumulation of cells at G2 phase at 20 uM in presence of ribociclib incubated for 48 hrs by PI staining based flow cytometric analysis (reference value: 11.0 %); format: functional
NCI-H460 [7] = assay: Induction of cell cycle arrest in human NCI-H460 cells assessed as accumulation of cells at G2 phase at 20 uM incubated for 48 hrs by PI staining based flow cytometric analysis (reference value: 11.0 %); format: functional
NCI-H460 [8] = assay: Induction of cell cycle arrest in human NCI-H460 cells assessed as accumulation of cells at G1 phase at 20 uM in presence of ribociclib incubated for 48 hrs by PI staining based flow cytometric analysis (reference value: 56.7 %); format: functional
NCI-H460 [9] = assay: Antitumor activity against human NCI-H460 cells xenografted in female BALB/c nude mouse assessed as tumor growth inhibition at 50 mg/kg, ip administered for 21 consecutive days relative to control; format: functional; details: NCI-H460, 504 h, time 21 day, read-out: TGI
NCI-H460 [10] = assay: Induction of autophagy in human NCI-H460 cells assessed as increase in number of autophagosomes at 20 uM in presence of ribociclib incubated for 48 hrs by MDC staining and LC3B immunofluorescence analysis; format: functional, cell-based
A549 [11] = assay: cells; details: Homo sapiens, A549, 48 h
Description: Antitumor activity against human A549 cells assessed as inhibition of cell viability incubated for 48 hrs by MTT assay

NCI-H460 [12] = assay: Induction of cell cycle arrest in human NCI-H460 cells assessed as accumulation of cells at S phase at 20 uM incubated for 48 hrs by PI staining based flow cytometric analysis (reference value: 33.3 %); format: functional
NCI-H460 [13] = assay: Induction of apoptosis in human NCI-H460 cells assessed as early apoptotic cells at 20 uM incubated for 48 hrs by Annexin V-PE/7-AAD staining based flow cytometric analysis (reference value: 3.58 %); format: functional
NCI-H460 [14] = assay: cells; details: Homo sapiens, NCI-H460, 48 h
Description: Antitumor activity against human NCI-H460 cells assessed as inhibition of cell viability incubated for 48 hrs by MTT assay

NCI-H460 [15] = assay: Induction of autophagy in human NCI-H460 cells assessed as increase in acidic vesicles at 20 uM incubated for 48 hrs by MDC staining and LC3B immunofluorescence analysis; format: functional, cell-based
NCI-H1299 [16] = assay: cells; details: Homo sapiens, NCI-H1299, 48 h
Description: Antitumor activity against human NCI-H1299 cells assessed as inhibition of cell viability incubated for 48 hrs by MTT assay

NCI-H460 [17] = assay: Induction of cell cycle arrest in human NCI-H460 cells assessed as accumulation of cells at S phase at 20 uM in presence of ribociclib incubated for 48 hrs by PI staining based flow cytometric analysis (reference value: 33.3 %); format: functional
NCI-H460 [18] = assay: Induction of apoptosis in human NCI-H460 cells assessed as necrotic cells at 20 uM incubated for 48 hrs by Annexin V-PE/7-AAD staining based flow cytometric analysis (reference value: 0.79 %); format: functional
NCI-H460 [19] = assay: Antitumor activity against human NCI-H460 cells assessed as inhibition of cell viability incubated for 48 hrs in presence of ribociclib by MTT assay; format: functional, cell-based; details: NCI-H460, 48 h
NCI-H1299 [20] = assay: Antitumor activity against human NCI-H1299 cells assessed as inhibition of cell viability incubated for 48 hrs in presence of ribociclib by MTT assay; format: functional, cell-based; details: NCI-H1299, 48 h
[21] = target: Bromodomain-containing protein 4 (Homo sapiens) (UniProt O60885); details: dose 1000.0 nM
Description: Inhibition of BRD4 BD2 (unknown origin) assessed as inhibition ratio at 1000 nM relative to control

NCI-H460 [22] = assay: Induction of apoptosis in human NCI-H460 cells assessed as late apoptotic cells at 20 uM incubated for 48 hrs in presence of ribociclib by Annexin V-PE/7-AAD staining based flow cytometric analysis (reference value: 3.76 %); format: functional
NCI-H460 [23] = assay: Induction of apoptosis in human NCI-H460 cells assessed as necrotic cells at 20 uM incubated for 48 hrs in presence of ribociclib by Annexin V-PE/7-AAD staining based flow cytometric analysis (reference value: 0.79 %); format: functional
NCI-H460 [24] = assay: Induction of cell cycle arrest in human NCI-H460 cells assessed as accumulation of cells at G1 phase at 20 uM incubated for 48 hrs by PI staining based flow cytometric analysis (reference value: 56.7 %); format: functional

COc1cc(OC)c2c(=O)[nH]c(-c3cc(C)c(OCCO)c(C)c3)nc2c1 [APABETALONE]
IC50 (A549 [1]): 18.8 µM | inhibition in vivo at 50 mg/kg (NCI-H460 [2]): 72% | Activity (NCI-H460 [3]): 4.99% | Activity (NCI-H460 [4]): 13.8% | Activity (NCI-H460 [5]): inactive | Activity (NCI-H460 [6]): 4.4% | Activity (NCI-H460 [7]): 13% | Activity (NCI-H460 [8]): 87.9% | inhibition in vivo at 50 mg/kg (NCI-H460 [9]): 37.5% | Activity (NCI-H460 [10]): inactive | IC50 (A549 [11]): > 40 µM | Activity (NCI-H460 [12]): 30.1% | Activity (NCI-H460 [13]): 2.05% | IC50 (NCI-H460 [14]): > 40 µM | Activity (NCI-H460 [15]): inactive | IC50 (NCI-H1299 [16]): 18.4 µM | Activity (NCI-H460 [17]): 9.38% | Activity (NCI-H460 [18]): 1.59% | IC50 (NCI-H460 [19]): 10.3 µM | IC50 (NCI-H1299 [20]): 8.16 µM | inhibition [21]: 89.8% | Activity (NCI-H460 [22]): 5.71% | Activity (NCI-H460 [23]): 1.11% | Activity (NCI-H460 [24]): 56%
